Measurements: paper PMC12263422, “Cryo-EM structure of the human THIK-1 K2P K^+ channel reveals a lower Y gate regulated by lipids and anesthetics” (Nature Structural & Molecular Biology, 2025)
Where “and” joins values, the source holds several entries; their conditions need not be identical. Equal values may be shown once. Read-outs that look alike come from different tables or passages of the source.

How the values were obtained:
Format in all cases: cell-based
[1] = molecular target: T1, THIK-1 N261A (Homo sapiens, UniProt Q9HB14, N261A); assay: Inside-out excised patch recordings, oocytes, THIK-1 N261A mutant (lipid activation); conditions: read-out: Linoleic acid EC50
T1 construct: expressed in transfected cells; host or cells: Xenopus oocytes (mRNA injection)
From the text: Supplement 41594_2025_1497_MOESM2_ESM.xlsx, sheet "ExtData_Fig_S5f" | column: Linoleic acid EC50 (µM); N261A

[2] = molecular target: T2, THIK-1 S136A (Homo sapiens, UniProt Q9HB14, S136A); assay: Inside-out excised patch recordings, oocytes, THIK-1 S136A mutant; conditions: read-out: TPenA IC50
T2 construct: expressed in transfected cells; host or cells: Xenopus oocytes (mRNA injection)
From the text: Supplement 41594_2025_1497_MOESM2_ESM.xlsx, sheet "ExtData_Fig_S2c" | column: Normalized currents

[3] = molecular target: T3, THIK-1-Y273W (Homo sapiens, UniProt Q9HB14, Y273W); assay: Inside-out excised patch recordings, oocytes, THIK-1 Y273W mutant
T3 construct: expressed in transfected cells; host or cells: Xenopus oocytes (mRNA injection)
T3 sequence (Q9HB14 1-408 Y273W): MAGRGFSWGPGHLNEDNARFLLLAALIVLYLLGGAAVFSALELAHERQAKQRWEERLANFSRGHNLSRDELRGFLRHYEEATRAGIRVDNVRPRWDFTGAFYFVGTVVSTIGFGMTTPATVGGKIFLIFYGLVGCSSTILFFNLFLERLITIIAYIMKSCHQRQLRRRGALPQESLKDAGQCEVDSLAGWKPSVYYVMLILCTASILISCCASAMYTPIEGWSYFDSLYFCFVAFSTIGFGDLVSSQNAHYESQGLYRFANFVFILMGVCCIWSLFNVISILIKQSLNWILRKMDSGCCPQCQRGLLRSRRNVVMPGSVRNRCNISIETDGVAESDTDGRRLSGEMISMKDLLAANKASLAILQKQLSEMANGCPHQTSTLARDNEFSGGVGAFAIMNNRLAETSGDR
From the text: Human K2P13.1 THIK-1 (GenBank accession number: NM_022054) and human K2P12.1 THIK-2 (NM_022055.1) were used in this study. For functional expression studies, the respective K^+ channel subtype coding sequences were subcloned into the oocyte expression vector pSGEM or the dual-purpose expression vector pFAW[41] and verified by sequencing. All mutant channels were obtained by site-directed mutagenesis and verified by sequencing. To increase surface expression and macroscopic currents, measurements of THIK-2 channels used a mutated ER retention motif, (R11A R12A R14A R15A R16A; THIK-2*)[20]. Vector DNA was linearized with NheI or MluI, and mRNA was synthesized in vitro using the SP6 or T7 AmpliCap Max High Yield Message Maker Kit (Cellscript, USA) or HiScribe T7 ARCA mRNA Kit (New England Biolabs).
Two-electrode voltage–clamp (TEVC) studies were performed in Xenopus oocytes. All animal use conformed to the Guide for the Care and Use of Laboratory Animals (NIH Publication 85–23), and all experiments using Xenopus toads were approved by the local ethics panels. Oocytes were stored at 17 °C in ND96 recording solution composed of (in mM): 96 NaCl, 2 KCl, 1.8 CaCl2, 1 MgCl2, 5 HEPES (pH 7.5 adjusted with NaOH and HCl), supplemented with Na-pyruvate (275 mg L^–1), theophylline (90 mg L^–1) and gentamicin (50 mg L^–1). Oocytes were injected with 1 ng mRNA for WT or mutant channels, and were incubated for 24–48 h at 17 °C. Two-electrode voltage clamp recordings were then performed as previously described[42],[43]. For macroscopic patch–clamp measurements, oocytes were obtained as described above incubated at 17 °C in a solution containing (mM): 54 NaCl, 30 KCl, 2.4 NaHCO3, 0.82 MgSO4 ×7 H2O, 0.41 CaCl2, 0.33 Ca(NO3)2 ×4 H2O and 7.5 TRIS (pH 7.4 adjusted with NaOH and HCl) for 1–4 days before use. Excised patch recordings in inside-out configuration conditions were performed at room temperature. Patch pipettes were made from thick-walled borosilicate glass GB 200TF-8P (Science Products), had resistances of 0.2–0.5 MΩ (tip diameter, 10–25 µm) and filled with a pipette solution (in mM): 120 KCl, 10 HEPES and 3.6 CaCl2 (pH 7.4 adjusted with KOH and HCl). […] Currents were recorded with an EPC10 amplifier (HEKA Electronics) and sampled at 10 kHz or higher, with filtering set to 3 kHz (–3 dB) or higher, as appropriate for sampling rate. For measurements of GPCR activation, whole-cell currents were recorded for THIK-1 in transiently transfected HEK-293 cells. […] Single-channel currents were recorded with an Axopatch 200B amplifier through a Digidata 1440A digitizer (Molecular Devices). Data were filtered at 2 kHz and recorded at a 200-kHz sampling rate with the program Clampex (Molecular Devices). […]

T1 sequence (Q9HB14 whole entry N261A): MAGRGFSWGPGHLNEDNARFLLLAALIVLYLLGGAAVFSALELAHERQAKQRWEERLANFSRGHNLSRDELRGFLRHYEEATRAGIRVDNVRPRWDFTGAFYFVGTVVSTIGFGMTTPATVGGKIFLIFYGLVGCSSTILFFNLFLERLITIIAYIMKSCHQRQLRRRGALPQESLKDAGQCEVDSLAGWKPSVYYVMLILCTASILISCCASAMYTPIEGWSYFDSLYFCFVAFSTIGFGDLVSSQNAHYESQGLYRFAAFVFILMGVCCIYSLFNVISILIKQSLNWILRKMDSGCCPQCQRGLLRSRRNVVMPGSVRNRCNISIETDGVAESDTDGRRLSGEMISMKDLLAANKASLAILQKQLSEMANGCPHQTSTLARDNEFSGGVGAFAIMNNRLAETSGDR
T2 sequence (Q9HB14 whole entry S136A): as the sequence (Q9HB14 whole entry N261A) above, with S136A, A261N counted along it

| EC50 ([1]; individual recordings) | EC50 ([1]; mean) | SMILES | IC50 ([2]; individual recordings) | IC50 ([2]; mean) | τ of 1 mM TPenA block ([3]; individual recordings) | τ of 1 mM TPenA release ([3]; individual recordings) | τ of 1 mM TPenA block ([3]; mean) | τ of 1 mM TPenA release ([3]; mean) |
| --- | --- | --- | --- | --- | --- | --- | --- | --- |
| 92.8 µM and 196 µM and 39.8 µM and 91.8 µM and 102 µM and 140 µM | 110 µM | CCCCC/C=C\C/C=C\CCCCCCCC(=O)O [linoleic acid] | – | – | – | – | – | – |
| – | – | CCCCC[N+](CCCCC)(CCCCC)CCCCC [TPenA, tetrapentylammonium] | 102 µM and 173 µM and 396 µM and 375 µM and 349 µM and 120 µM and 192 µM | 244 µM | 13.500 s and 9.700 s and 8.400 s and 10.003 s and 8.350 s and 4.860 s and 3.160 s and 2.380 s and 2.990 s and 4.490 s and 10.150 s and 2.500 s and 2.400 s and 9.800 s and 5.700 s and 4.500 s and 4.080 s | 20.400 s and 14.700 s and 10.800 s and 14.800 s and 23.260 s and 14.350 s and 14.990 s and 14.820 s and 16.280 s and 20.350 s and 17.660 s | 6.29 s | 16.58 s |
